# According to patent US20240217977A1, “DIAZEPANONE-FUSED PYRIMIDINE COMPOUNDS, COMPOSITIONS AND MEDICINAL APPLICATIONS THEREOF” (Blueprint Medicines Corporation, priority 2021, published 2024):
# Assays:
# Format in all cases: cell-based
# A431 cells = assay: Cellular proliferation (Alamar Blue) assay, A431 cells; details: Homo sapiens, A-431, 72 hr incubation
# Protocol: (§1) Example 2: Cellular Proliferation (Alamar Blue) Assays
# (§2) • 1. EGFR(D770_N771insSVD) expressing Ba/F3 stable cell line • 2. EGFR (A767_dupASV) expressing Ba/F3 stable cell line • 3. A431 cells • 4. EGFR (H773insNPH) expressing Ba/F3 stable cell line • 5. HER2 (A775_G775insYVMA) expressing Ba/F3 stable cell line
# (§3) • 1. Seed cells at 5000 for A431 and 15,000 cells for Ba/F3 in 100 μL/well in complete media (for A431: DMEM with 10% FBS and for Ba/F3 cells: RPMI with 10% FBS) in • 96-well tissue culture plate. Leave outer wells without cells for background measurements. Incubate at 37 degree Celsius in 5% C02 humidified incubator for 16-18 hours. • 2. Add 0.025 ml of 5× concentration compound dilution or DMSO control. Final compound concentration range is 10-0.0005 μM prepared in 3-fold serial dilutions. Incubate for 72 hr at 37 degree Celsius in 5% CO2 humidified incubator. • 3. Add 0.0125 ml Alamar Blue™ reagent to each well with multi-channel pipette and tap gently on each side of the plate to mix. Incubate for 3 hours at 37 degree Celsius in 5% CO2 humidified incubator. • 4. Read plates on fluorescence reader (Tecan Spark Control, Device: Spark, Serial #: 1801006040) at 540 nm excitation, 590 nm emission wavelength. • 5. Data analysis was performed using XLfit 5.5.0.5.
# [1] = target: EGFR (A767_dupASV) expressing Ba/F3 stable cell line (Homo sapiens, UniProt P00533, DUP767-769, cells depend on it); assay: Cellular proliferation (Alamar Blue) assay, EGFR (A767_dupASV) Ba/F3; details: 72 hr incubation, read-out: A767 IC50
# Protocol: as §1, §2, §3
# [2] = target: EGFR(D770_N771insSVD) expressing Ba/F3 stable cell line (Homo sapiens, UniProt P00533, DUP768-770, cells depend on it); assay: Cellular proliferation (Alamar Blue) assay, EGFR(D770_N771insSVD) Ba/F3; details: 72 hr incubation, read-out: D770 IC50
# Protocol: as §1, §2, §3
# [3] = target: HER2 (A775_G775insYVMA) expressing Ba/F3 stable cell line (Homo sapiens, UniProt P04626, DUP772-775, cells depend on it); assay: Cellular proliferation (Alamar Blue) assay, HER2 (A775_G775insYVMA) Ba/F3; details: 72 hr incubation, read-out: YVMA IC50
# Protocol: as §1, §2, §3
# EGFR (A767_dupASV) expressing Ba/F3 stable cell line, sequence (P00533 with tags, fused parts or gaps DUP767-769): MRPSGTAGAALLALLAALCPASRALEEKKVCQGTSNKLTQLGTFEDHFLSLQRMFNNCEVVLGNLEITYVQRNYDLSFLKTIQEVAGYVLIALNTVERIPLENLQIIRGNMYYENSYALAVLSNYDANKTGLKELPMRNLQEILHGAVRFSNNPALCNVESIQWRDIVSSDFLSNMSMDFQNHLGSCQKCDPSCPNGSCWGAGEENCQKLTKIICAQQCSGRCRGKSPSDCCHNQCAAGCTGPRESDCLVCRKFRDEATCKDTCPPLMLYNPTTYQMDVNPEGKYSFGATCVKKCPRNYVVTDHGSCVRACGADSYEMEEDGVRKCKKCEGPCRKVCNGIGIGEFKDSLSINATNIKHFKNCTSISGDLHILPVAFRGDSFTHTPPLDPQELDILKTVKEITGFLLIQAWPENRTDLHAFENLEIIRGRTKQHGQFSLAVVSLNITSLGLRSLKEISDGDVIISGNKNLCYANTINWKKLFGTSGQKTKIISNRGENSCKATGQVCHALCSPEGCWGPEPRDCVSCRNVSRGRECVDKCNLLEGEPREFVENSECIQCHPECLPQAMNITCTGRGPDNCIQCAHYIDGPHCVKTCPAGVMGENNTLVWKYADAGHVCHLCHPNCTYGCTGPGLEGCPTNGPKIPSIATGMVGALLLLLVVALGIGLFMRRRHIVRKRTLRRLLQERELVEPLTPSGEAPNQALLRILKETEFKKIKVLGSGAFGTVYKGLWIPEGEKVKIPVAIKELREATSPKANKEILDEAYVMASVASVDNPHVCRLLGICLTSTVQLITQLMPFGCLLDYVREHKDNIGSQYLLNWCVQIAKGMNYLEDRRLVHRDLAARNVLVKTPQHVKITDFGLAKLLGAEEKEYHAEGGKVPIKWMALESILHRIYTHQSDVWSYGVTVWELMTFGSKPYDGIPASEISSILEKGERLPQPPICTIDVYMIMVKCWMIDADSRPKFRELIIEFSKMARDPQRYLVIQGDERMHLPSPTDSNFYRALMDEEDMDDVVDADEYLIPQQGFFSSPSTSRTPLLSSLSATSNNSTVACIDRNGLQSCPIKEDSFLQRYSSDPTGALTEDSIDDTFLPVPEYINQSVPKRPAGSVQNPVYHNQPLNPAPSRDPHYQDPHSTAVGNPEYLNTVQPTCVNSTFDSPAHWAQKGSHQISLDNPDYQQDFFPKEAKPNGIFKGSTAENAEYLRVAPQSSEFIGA
# HER2 (A775_G775insYVMA) expressing Ba/F3 stable cell line, sequence (P04626 with tags, fused parts or gaps DUP772-775): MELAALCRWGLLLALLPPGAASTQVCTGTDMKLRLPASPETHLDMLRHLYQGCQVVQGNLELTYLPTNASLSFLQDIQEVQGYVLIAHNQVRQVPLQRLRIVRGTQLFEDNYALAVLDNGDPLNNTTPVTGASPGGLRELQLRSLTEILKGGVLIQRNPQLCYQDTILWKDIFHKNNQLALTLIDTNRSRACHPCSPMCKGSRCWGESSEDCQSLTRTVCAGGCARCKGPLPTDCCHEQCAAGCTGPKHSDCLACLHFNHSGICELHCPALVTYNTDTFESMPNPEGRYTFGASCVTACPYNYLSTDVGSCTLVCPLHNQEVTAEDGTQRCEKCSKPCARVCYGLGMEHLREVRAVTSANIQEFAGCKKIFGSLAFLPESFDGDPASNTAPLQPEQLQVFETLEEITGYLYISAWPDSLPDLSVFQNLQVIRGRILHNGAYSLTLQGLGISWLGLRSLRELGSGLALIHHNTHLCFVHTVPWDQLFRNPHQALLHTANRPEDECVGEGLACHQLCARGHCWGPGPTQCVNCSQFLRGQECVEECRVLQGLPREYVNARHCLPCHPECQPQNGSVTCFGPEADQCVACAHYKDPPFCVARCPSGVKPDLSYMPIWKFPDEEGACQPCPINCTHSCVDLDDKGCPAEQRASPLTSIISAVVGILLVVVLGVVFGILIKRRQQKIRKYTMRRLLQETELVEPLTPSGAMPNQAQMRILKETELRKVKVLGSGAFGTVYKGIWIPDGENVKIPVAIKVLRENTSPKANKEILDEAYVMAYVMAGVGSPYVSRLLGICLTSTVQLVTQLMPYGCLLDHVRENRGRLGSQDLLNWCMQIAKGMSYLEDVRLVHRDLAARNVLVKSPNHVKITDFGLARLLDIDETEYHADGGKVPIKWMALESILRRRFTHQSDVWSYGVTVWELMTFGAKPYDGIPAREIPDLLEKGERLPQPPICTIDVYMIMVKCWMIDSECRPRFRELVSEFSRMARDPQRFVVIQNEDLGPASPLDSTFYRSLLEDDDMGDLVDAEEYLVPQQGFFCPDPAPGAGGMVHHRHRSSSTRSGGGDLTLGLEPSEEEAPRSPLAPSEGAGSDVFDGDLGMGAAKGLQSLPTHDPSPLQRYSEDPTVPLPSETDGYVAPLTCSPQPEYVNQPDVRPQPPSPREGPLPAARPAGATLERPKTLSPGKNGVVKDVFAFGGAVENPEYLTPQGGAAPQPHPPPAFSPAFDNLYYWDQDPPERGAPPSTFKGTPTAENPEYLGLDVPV
# EGFR(D770_N771insSVD) expressing Ba/F3 stable cell line, sequence (P00533 with tags, fused parts or gaps DUP768-770): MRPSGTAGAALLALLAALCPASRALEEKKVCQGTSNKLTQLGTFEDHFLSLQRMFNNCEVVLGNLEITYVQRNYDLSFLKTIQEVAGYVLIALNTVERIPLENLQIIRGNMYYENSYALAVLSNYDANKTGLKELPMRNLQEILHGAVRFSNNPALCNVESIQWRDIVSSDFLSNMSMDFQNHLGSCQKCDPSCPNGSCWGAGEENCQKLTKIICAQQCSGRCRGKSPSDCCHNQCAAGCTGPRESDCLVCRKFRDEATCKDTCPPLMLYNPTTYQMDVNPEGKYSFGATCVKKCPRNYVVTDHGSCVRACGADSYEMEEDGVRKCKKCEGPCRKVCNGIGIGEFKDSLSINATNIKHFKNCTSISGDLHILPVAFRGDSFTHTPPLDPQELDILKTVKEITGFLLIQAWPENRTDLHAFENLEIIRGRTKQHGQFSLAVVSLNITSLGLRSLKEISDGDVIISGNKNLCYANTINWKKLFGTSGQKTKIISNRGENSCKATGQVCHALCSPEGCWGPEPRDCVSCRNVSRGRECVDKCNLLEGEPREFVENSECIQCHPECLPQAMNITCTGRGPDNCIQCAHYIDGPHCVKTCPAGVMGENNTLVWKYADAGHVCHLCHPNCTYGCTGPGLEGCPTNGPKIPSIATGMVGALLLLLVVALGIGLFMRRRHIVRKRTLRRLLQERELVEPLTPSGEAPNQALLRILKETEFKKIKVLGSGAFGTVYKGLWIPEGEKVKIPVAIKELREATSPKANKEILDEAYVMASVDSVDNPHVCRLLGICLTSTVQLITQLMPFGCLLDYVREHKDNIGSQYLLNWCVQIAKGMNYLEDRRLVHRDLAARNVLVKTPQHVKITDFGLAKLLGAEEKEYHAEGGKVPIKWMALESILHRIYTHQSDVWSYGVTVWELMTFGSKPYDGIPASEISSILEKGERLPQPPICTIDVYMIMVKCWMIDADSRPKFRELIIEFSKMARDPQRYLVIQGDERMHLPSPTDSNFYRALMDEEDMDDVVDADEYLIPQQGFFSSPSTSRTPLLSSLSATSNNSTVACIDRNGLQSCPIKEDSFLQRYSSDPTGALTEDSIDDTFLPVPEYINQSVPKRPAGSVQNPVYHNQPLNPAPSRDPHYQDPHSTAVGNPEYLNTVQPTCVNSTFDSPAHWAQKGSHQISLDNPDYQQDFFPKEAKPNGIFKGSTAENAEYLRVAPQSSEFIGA
SMILES,IC50 (A431 cells),GI50 [1],GI50 [2],GI50 [3]
"Cc1cc(Nc2ncc3c(n2)N(c2cccc(NC(=O)/C=C/CN(C)C)c2)C(=O)N(Cc2ccccc2)CC3)ccc1N1CCN(C)CC1 [Compound 23, (E)-N-(3-(7-benzyl-2-((3-methyl-4-(4-methylpiperazin-1-yl)phenyl)amino)-8-oxo-5,6,7,8-tetrahydro-9H-pyrimido[4,5-d][1,3]diazepin-9-yl)phenyl)-4-(dimethylamino)but-2-enamide]",0.179 µM,0.911 µM,0.933 µM,
"Cn1cc(Nc2ncc3c(n2)N(c2cccc(NC(=O)/C=C/CN4CCOCC4)c2)C(=O)N(c2ccccc2)CC3)c(Cl)n1 [Compound 32, (E)-N-(3-(2-((3-chloro-1-methyl-1H-pyrazol-4-yl)amino)-8-oxo-7-phenyl-5,6,7,8-tetrahydro-9H-pyrimido[4,5-d][1,3]diazepin-9-yl)phenyl)-4-morpholinobut-2-enamide]",> 10 µM,1.16 µM,1.36 µM,3.28 µM
"Cn1cc(Nc2ncc3c(n2)N(c2cccc(NC(=O)C(F)Cl)c2)C(=O)N(Cc2ccccc2)CC3)c(Cl)n1 (stereo not shown) [Compound 24, N-(3-(7-benzyl-2-((3-chloro-1-methyl-1H-pyrazol-4-yl)amino)-8-oxo-5,6,7,8-tetrahydro-9H-pyrimido[4,5-d][1,3]diazepin-9-yl)phenyl)-2-chloro-2-fluoroacetamide]",> 10 µM,1.15 µM,1.09 µM,2 µM
"CN(C)C/C=C/C(=O)Nc1cccc(N2C(=O)N(c3ccccc3)CCc3cnc(Nc4ccc(C5CCN(C)CC5)cc4)nc32)c1 [Compound 38, (E)-4-(dimethylamino)-N-(3-(2-((4-(1-methylpiperidin-4-yl)phenyl)amino)-8-oxo-7-phenyl-5,6,7,8-tetrahydro-9H-pyrimido[4,5-d][1,3]diazepin-9-yl)phenyl)but-2-enamide]",0.37 µM,9.01 µM,0.989 µM,
"Cc1cc(Nc2ncc3c(n2)N(c2cccc(NC(=O)/C=C/CN(C)C)c2)C(=O)N(c2ccccc2)CC3)ccc1N1CCN(C)CC1 [Compound 34, (E)-4-(dimethylamino)-N-(3-(2-((3-methyl-4-(4-methylpiperazin-1-yl)phenyl)amino)-8-oxo-7-phenyl-5,6,7,8-tetrahydro-9H-pyrimido[4,5-d][1,3]diazepin-9-yl)phenyl)but-2-enamide]",0.225 µM,2.79 µM,3.48 µM,
"C=CC(=O)Nc1cccc(N2C(=O)N(Cc3ccccc3)CCc3cnc(NC4COC4)nc32)c1 [Compound 27, N-(3-(7-benzyl-2-(oxetan-3-ylamino)-8-oxo-5,6,7,8-tetrahydro-9H-pyrimido[4,5-d][1,3]diazepin-9-yl)phenyl)acrylamide]",> 10 µM,0.606 µM,0.611 µM,
"Cn1cc(Nc2ncc3c(n2)N(c2cccc(NC(=O)/C=C/CN4CCCCC4)c2)C(=O)N(c2ccccc2)CC3)c(Cl)n1 [Compound 40, (E)-N-(3-(2-((3-chloro-1-methyl-1H-pyrazol-4-yl)amino)-8-oxo-7-phenyl-5,6,7,8-tetrahydro-9H-pyrimido[4,5-d][1,3]diazepin-9-yl)phenyl)-4-(piperidin-1-yl)but-2-enamide]",> 10 µM,0.325 µM,0.406 µM,0.536 µM
"CN(C)C/C=C/C(=O)Nc1cccc(N2C(=O)N(Cc3ccccc3)CCc3cnc(Nc4ccc(N5CCN(C)CC5)nc4)nc32)c1 [Compound 17, (E)-N-(3-(7-benzyl-2-((6-(4-methylpiperazin-1-yl)pyridin-3-yl)amino)-8-oxo-5,6,7,8-tetrahydro-9H-pyrimido[4,5-d][1,3]diazepin-9-yl)phenyl)-4-(dimethylamino)but-2-enamide]",> 10 µM,1.13 µM,2.77 µM,0.793 µM
"C=CC(=O)Nc1cccc(Nc2ncc3c(n2)N(C)C(=O)N(c2ccccc2)CC3)c1 [Compound 45, N-(3-((9-methyl-8-oxo-7-phenyl-6,7,8,9-tetrahydro-5H-pyrimido[4,5-d][1,3]diazepin-2-yl)amino)phenyl)acrylamide]",1.22 µM,> 10 µM,> 10 µM,
"CN(C)C/C=C/C(=O)Nc1cccc(N2C(=O)N(c3ccccc3)CCc3cnc(Nc4cccnc4F)nc32)c1 [Compound 44, (E)-4-(dimethylamino)-N-(3-(2-((2-fluoropyridin-3-yl)amino)-8-oxo-7-phenyl-5,6,7,8-tetrahydro-9H-pyrimido[4,5-d][1,3]diazepin-9-yl)phenyl)but-2-enamide]",> 10 µM,0.936 µM,1.14 µM,1.23 µM
"C=CC(=O)Nc1cccc(N2C(=O)N(Cc3ccccc3)CCc3cnc(NC4CCCC4)nc32)c1 [Compound 13, N-(3-(7-benzyl-2-(cyclopentylamino)-8-oxo-5,6,7,8-tetrahydro-9H-pyrimido[4,5-d][1,3]diazepin-9-yl)phenyl)acrylamide]",> 10 µM,0.848 µM,1.06 µM,1.03 µM
"C/C=C/C(=O)Nc1cccc(N2C(=O)N(c3ccccc3)CCc3cnc(Nc4cn(C)nc4Cl)nc32)c1 [Compound 30, (E)-N-(3-(2-((3-chloro-1-methyl-1H-pyrazol-4-yl)amino)-8-oxo-7-phenyl-5,6,7,8-tetrahydro-9H-pyrimido[4,5-d][1,3]diazepin-9-yl)phenyl)but-2-enamide]",> 10 µM,0.993 µM,1.96 µM,3.32 µM
"COc1cc(N2CCN(C)CC2)ccc1Nc1ncc2c(n1)N(c1cccc(NC(=O)/C=C/CN(C)C)c1)C(=O)N(Cc1ccccc1)CC2 [Compound 15, (E)-N-(3-(7-benzyl-2-((2-methoxy-4-(4-methylpiperazin-1-yl)phenyl)amino)-8-oxo-5,6,7,8-tetrahydro-9H-pyrimido[4,5-d][1,3]diazepin-9-yl)phenyl)-4-(dimethylamino)but-2-enamide]",6.02 µM,0.348 µM,0.959 µM,0.174 µM
"C=CC(=O)Nc1cccc(N2C(=O)N(c3ccccc3)CCc3cnc(Nc4ccc(C5CCN(C)CC5)cc4)nc32)c1 [Compound 36, N-(3-(2-((4-(1-methylpiperidin-4-yl)phenyl)amino)-8-oxo-7-phenyl-5,6,7,8-tetrahydro-9H-pyrimido[4,5-d][1,3]diazepin-9-yl)phenyl)acrylamide]",0.02 µM,0.318 µM,0.325 µM,
"CN(C)C/C=C/C(=O)Nc1cccc(N2C(=O)N(c3ccccc3)CCc3cnc(Nc4cn(C)nc4Cl)nc32)c1 [Compound 31, (E)-N-(3-(2-((3-chloro-1-methyl-1H-pyrazol-4-yl)amino)-8-oxo-7-phenyl-5,6,7,8-tetrahydro-9H-pyrimido[4,5-d][1,3]diazepin-9-yl)phenyl)-4-(dimethylamino)but-2-enamide]",> 10 µM,2.04 µM,3.95 µM,2.42 µM
"COC/C=C/C(=O)Nc1cccc(N2C(=O)N(c3ccccc3)CCc3cnc(Nc4cn(C)nc4Cl)nc32)c1 [Compound 46, (E)-N-(3-(2-((3-chloro-1-methyl-1H-pyrazol-4-yl)amino)-8-oxo-7-phenyl-5,6,7,8-tetrahydro-9H-pyrimido[4,5-d][1,3]diazepin-9-yl)phenyl)-4-methoxybut-2-enamide]",> 10 µM,1.13 µM,2.77 µM,5.95 µM
"CN(C)C/C=C/C(=O)Nc1cccc(N2C(=O)N(Cc3ccccc3)CCc3cnc(Nc4cn(C5CCN(C)CC5)nc4Cl)nc32)c1 [Compound 8, (E)-N-(3-(7-benzyl-2-((3-chloro-1-(1-methylpiperidin-4-yl)-1H-pyrazol-4-yl)amino)-8-oxo-5,6,7,8-tetrahydro-9H-pyrimido[4,5-d][1,3]diazepin-9-yl)phenyl)-4-(dimethylamino)but-2-enamide]",0.114 µM,0.329 µM,0.94 µM,
"C=CC(=O)Nc1cccc(N2C(=O)N(Cc3ccccc3)CCc3cnc(NC4CCOCC4)nc32)c1 [Compound 25, N-(3-(7-benzyl-8-oxo-2-((tetrahydro-2H-pyran-4-yl)amino)-5,6,7,8-tetrahydro-9H-pyrimido[4,5-d][1,3]diazepin-9-yl)phenyl)acrylamide]",> 10 µM,0.388 µM,0.492 µM,
"C=CC(=O)Nc1cccc(N2C(=O)N(Cc3ccccc3)CCc3cnc(Nc4cccnc4)nc32)c1 [Compound 12, N-(3-(7-benzyl-8-oxo-2-(pyridin-3-ylamino)-5,6,7,8-tetrahydro-9H-pyrimido[4,5-d][1,3]diazepin-9-yl)phenyl)acrylamide]",> 10 µM,> 10 µM,> 10 µM,
